Where “and” joins values, the source holds several entries; their conditions need not be identical. Equal entries are not always repeated. Inconclusive results and toxic doses are left out.
Tested on: CD2F1 mice, L1210 leukemia sc, survival T/C
Test: NCI In Vivo Anticancer Drug Screen. Data for tumor model L1210 Leukemia (subcutaneous) in CD2F1 (CDF1) mice
Conditions: endpoint: median survival time, higher = longer survival
Procedure: The antitumor activity of compounds was measured in mice bearing transplantable tumors. Survival or tumor size were measured and the results are expressed as the measurement made in the treated group (T) divided by the measurement made in the vehicle treated control group (C). The tumor model used in this assay is L1210 Leukemia (subcutaneous) in CD2F1 (CDF1) mice

For `O=C1c2ccccc2C(=O)c2c(NCCNCCO)ccc(NCCNCCO)c21`, the T/C (dose: 0.5 mg/kg/injection, schedule: Q01DX009 (ip), vehicle: saline with Tween-80) was 97 % of control, the T/C (dose: 0.5 mg/kg/injection, schedule: Q01DX009 (ip), vehicle: saline) was 97 % of control and the T/C (dose: 1.0 mg/kg/injection, schedule: Q01DX009 (ip), vehicle: saline with Tween-80) was 98 % of control. The T/C (dose: 1.0 mg/kg/injection, schedule: Q01DX009 (ip), vehicle: saline) was 102 % of control and 106 % of control and 86 % of control, the T/C (dose: 2.0 mg/kg/injection, schedule: Q01DX009 (ip), vehicle: saline with Tween-80) was 101 % of control and the T/C (dose: 2.0 mg/kg/injection, schedule: Q01DX009 (ip), vehicle: saline) was 102 % of control and 108 % of control. For the same compound, the T/C (dose: 4.0 mg/kg/injection, schedule: Q01DX009 (ip), vehicle: Klucel (hydroxypropylcellulose) (HPC)) was 98 % of control, the T/C (dose: 4.0 mg/kg/injection, schedule: Q01DX009 (ip), vehicle: saline) was 105 % of control and 97 % of control and the T/C (dose: 4.0 mg/kg/injection, schedule: Q01DX009 (ip), vehicle: water) was 101 % of control. For the same compound, the T/C (dose: 4.0 mg/kg/injection, schedule: Q01DX009 (oral), vehicle: saline) was 94 % of control, the T/C (dose: 4.0 mg/kg/injection, schedule: Q01DX009 (sc), vehicle: Klucel (hydroxypropylcellulose) (HPC)) was 114 % of control and 124 % of control and the T/C (dose: 8.0 mg/kg/injection, schedule: Q01DX005 (oral), vehicle: Klucel (hydroxypropylcellulose) (HPC)) was 99 % of control. For the same compound, the T/C (dose: 8.0 mg/kg/injection, schedule: Q01DX005 (oral), vehicle: water) was 96 % of control, the T/C (dose: 8.0 mg/kg/injection, schedule: Q01DX009 (ip), vehicle: Klucel (hydroxypropylcellulose) (HPC)) was 122 % of control and 112 % of control and the T/C (dose: 8.0 mg/kg/injection, schedule: Q01DX009 (ip), vehicle: saline) was 93 % of control. For the same compound, the T/C (dose: 8.0 mg/kg/injection, schedule: Q01DX009 (ip), vehicle: water) was 104 % of control, the T/C (dose: 8.0 mg/kg/injection, schedule: Q01DX009 (oral), vehicle: saline) was 96 % of control and the T/C (dose: 8.0 mg/kg/injection, schedule: Q01DX009 (sc), vehicle: water) was 156 % of control. For the same compound, the T/C (dose: 16.0 mg/kg/injection, schedule: Q01DX005 (oral), vehicle: Klucel (hydroxypropylcellulose) (HPC)) was 106 % of control, the T/C (dose: 16.0 mg/kg/injection, schedule: Q01DX005 (oral), vehicle: water) was 96 % of control and the T/C (dose: 16.0 mg/kg/injection, schedule: Q01DX009 (ip), vehicle: Klucel (hydroxypropylcellulose) (HPC)) was 108 % of control. For the same compound, the T/C (dose: 16.0 mg/kg/injection, schedule: Q01DX009 (ip), vehicle: water) was 102 % of control, the T/C (dose: 16.0 mg/kg/injection, schedule: Q01DX009 (oral), vehicle: saline) was 96 % of control and the T/C (dose: 16.0 mg/kg/injection, schedule: Q01DX009 (sc), vehicle: Klucel (hydroxypropylcellulose) (HPC)) was 177 % of control and 122 % of control and 243 % of control. For the same compound, the T/C (dose: 16.0 mg/kg/injection, schedule: Q01DX009 (sc), vehicle: water) was 578 % of control, the T/C (dose: 32.0 mg/kg/injection, schedule: Q01DX005 (oral), vehicle: Klucel (hydroxypropylcellulose) (HPC)) was 103 % of control and the T/C (dose: 32.0 mg/kg/injection, schedule: Q01DX005 (oral), vehicle: water) was 99 % of control. For the same compound, the T/C (dose: 32.0 mg/kg/injection, schedule: Q01DX009 (ip), vehicle: Klucel (hydroxypropylcellulose) (HPC)) was 120 % of control and 119 % of control, the T/C (dose: 32.0 mg/kg/injection, schedule: Q01DX009 (ip), vehicle: saline) was 104 % of control and the T/C (dose: 32.0 mg/kg/injection, schedule: Q01DX009 (ip), vehicle: water) was 111 % of control. For the same compound, the T/C (dose: 32.0 mg/kg/injection, schedule: Q01DX009 (oral), vehicle: saline) was 94 % of control, the T/C (dose: 32.0 mg/kg/injection, schedule: Q01DX009 (sc), vehicle: Klucel (hydroxypropylcellulose) (HPC)) was 200 % of control and 225 % of control and the T/C (dose: 32.0 mg/kg/injection, schedule: Q01DX009 (sc), vehicle: water) was 243 % of control. The T/C (dose: 64.0 mg/kg/injection, schedule: Q01DX005 (oral), vehicle: Klucel (hydroxypropylcellulose) (HPC)) was 93 % of control, the T/C (dose: 64.0 mg/kg/injection, schedule: Q01DX005 (oral), vehicle: water) was 103 % of control and the T/C (dose: 64.0 mg/kg/injection, schedule: Q01DX009 (ip), vehicle: saline) was 108 % of control and 89 % of control. For the same compound, the T/C (dose: 64.0 mg/kg/injection, schedule: Q01DX009 (oral), vehicle: saline) was 97 % of control, the T/C (dose: 64.0 mg/kg/injection, schedule: Q01DX009 (sc), vehicle: Klucel (hydroxypropylcellulose) (HPC)) was 92 % of control and the T/C (dose: 128.0 mg/kg/injection, schedule: Q01DX005 (oral), vehicle: Klucel (hydroxypropylcellulose) (HPC)) was 97 % of control. For the same compound, the T/C (dose: 128.0 mg/kg/injection, schedule: Q01DX005 (oral), vehicle: water) was 99 % of control, the T/C (dose: 128.0 mg/kg/injection, schedule: Q01DX009 (ip), vehicle: Klucel (hydroxypropylcellulose) (HPC)) was 122 % of control and the T/C (dose: 128.0 mg/kg/injection, schedule: Q01DX009 (ip), vehicle: saline) was 101 % of control. For the same compound, the T/C (dose: 128.0 mg/kg/injection, schedule: Q01DX009 (ip), vehicle: water) was 114 % of control, the T/C (dose: 128.0 mg/kg/injection, schedule: Q01DX009 (oral), vehicle: saline) was 102 % of control and the T/C (dose: 128.0 mg/kg/injection, schedule: Q01DX009 (sc), vehicle: Klucel (hydroxypropylcellulose) (HPC)) was 211 % of control. The T/C (dose: 256.0 mg/kg/injection, schedule: Q01DX005 (oral), vehicle: Klucel (hydroxypropylcellulose) (HPC)) was 98 % of control, the T/C (dose: 256.0 mg/kg/injection, schedule: Q01DX009 (oral), vehicle: saline) was 101 % of control and the T/C (dose: 512.0 mg/kg/injection, schedule: Q01DX009 (oral), vehicle: saline) was 93 % of control.

In the case of `O=C(Nc1ccccc1)c1c(O)[nH]c(=S)[nH]c1=O`, the T/C (dose: 5.6 mg/kg/injection, schedule: Q03HX008 (ip), vehicle: other) is reported as 107 % of control and 96 % of control, the T/C (dose: 5.9 mg/kg/injection, schedule: Q04HX006 (iv), vehicle: other) is reported as 110 % of control and the T/C (dose: 8.4 mg/kg/injection, schedule: Q03HX008 (ip), vehicle: other) is reported as 107 % of control. The T/C (dose: 8.9 mg/kg/injection, schedule: Q01DX003 (iv), vehicle: other) was 105 % of control, the T/C (dose: 8.9 mg/kg/injection, schedule: Q04HX006 (iv), vehicle: other) was 109 % of control and the T/C (dose: 12.6 mg/kg/injection, schedule: Q03HX008 (ip), vehicle: other) was 104 % of control and 111 % of control. The T/C (dose: 13.4 mg/kg/injection, schedule: Q01DX003 (iv), vehicle: other) was 101 % of control, the T/C (dose: 13.4 mg/kg/injection, schedule: Q01DX005 (ip), vehicle: other) was 100 % of control and 103 % of control and the T/C (dose: 13.4 mg/kg/injection, schedule: Q04HX006 (iv), vehicle: other) was 113 % of control. For the same compound, the T/C (dose: 18.8 mg/kg/injection, schedule: Q03HX008 (ip), vehicle: other) was 122 % of control, the T/C (dose: 20.0 mg/kg/injection, schedule: Q01DX003 (iv), vehicle: other) was 107 % of control and the T/C (dose: 20.0 mg/kg/injection, schedule: Q01DX005 (ip), vehicle: other) was 106 % of control and 115 % of control. For the same compound, the T/C (dose: 20.0 mg/kg/injection, schedule: Q04HX006 (iv), vehicle: other) was 119 % of control, the T/C (dose: 28.2 mg/kg/injection, schedule: Q03HX008 (ip), vehicle: other) was 157 % of control and 163 % of control and the T/C (dose: 29.8 mg/kg/injection, schedule: Q01DX001 (ip), vehicle: other) was 105 % of control and 107 % of control. The T/C (dose: 30.0 mg/kg/injection, schedule: Q01DX003 (iv), vehicle: other) was 124 % of control, the T/C (dose: 30.0 mg/kg/injection, schedule: Q04HX006 (iv), vehicle: other) was 168 % of control and the T/C (dose: 44.7 mg/kg/injection, schedule: Q01DX001 (ip), vehicle: other) was 117 % of control and 119 % of control. For the same compound, the T/C (dose: 45.0 mg/kg/injection, schedule: Q01DX003 (iv), vehicle: other) was 161 % of control and the T/C (dose: 45.0 mg/kg/injection, schedule: Q01DX005 (ip), vehicle: other) was 173 % of control and 184 % of control.

In the case of `CC1CN1CCS(=O)(=O)CCN1CC1C` (configuration not stated), the T/C (dose: 0.17 mg/kg/injection, schedule: Q01DX Z (sc), vehicle: other) is reported as 100 % of control, the T/C (dose: 2.16 mg/kg/injection, schedule: Q01DX Z (sc), vehicle: other) is reported as 100 % of control and the T/C (dose: 3.6 mg/kg/injection, schedule: Q01DX Z (sc), vehicle: other) is reported as 122 % of control. For the same compound, the T/C (dose: 6.0 mg/kg/injection, schedule: Q01DX Z (sc), vehicle: other) was 122 % of control.

`NC(=O)c1ncn2c(=O)n(CCCl)nnc12` was tested, and the T/C (dose: 1.56 mg/kg/injection, schedule: Q01DX009 (ip), vehicle: suspension in saline) was 123 % of control, the T/C (dose: 6.25 mg/kg/injection, schedule: Q01DX009 (ip), vehicle: suspension in saline) was 195 % of control and the T/C (dose: 12.5 mg/kg/injection, schedule: Q01DX009 (ip), vehicle: suspension in saline) was 309 % of control. The T/C (dose: 25.0 mg/kg/injection, schedule: Q01DX009 (ip), vehicle: suspension in saline) was 206 % of control and the T/C (dose: 50.0 mg/kg/injection, schedule: Q01DX009 (ip), vehicle: suspension in saline) was 100 % of control.
